From publication PMC6895180 (Nature Communications, 2019)
Several values for one entry are separate records, joined by “and”; a condition that tells them apart may be missing. Identical values can stand only once.

Legend:
[1] = Cytotoxicity on MRC-5 fibroblasts (resazurin); assay type: cell-based, human; conditions: human
Outline: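 MRC-5SV2 cells (3 × 10^4 cells mL^−1) in MEM with 5% foetal calf serum exposed to compounds for 3 days at 37 °C, 5% CO2. Viability read by resazurin fluorescence (10 µg mL^−1 final, 4 h; λex 550/λem 590 nm) against untreated and medium controls; EC50 derived.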

[2] = system: B48: pentamidine, diminazene and melaminophenyl arsenical resistant T. brucei line; experiment: microbe, parasite or virus in culture; assay type: cell-based, Trypanosoma brucei brucei
[3] = system: T. brucei BSF s427 wildtype cells; experiment: Growth assays of T. brucei (trypanocidal/trypanostatic effect); assay type: cell-based, Trypanosoma brucei
Experimental: Growth assays of T. brucei
To test the effect of the novel adenosine analogues on the growth of T. brucei BSF, s427 wildtype cells were seeded at 1×10^5 cells mL-1 in 5 mL of HMI-9 medium with 10% FBS and treated with compounds […]
cells were also incubated in drug-free medium under the same conditions. 2 μM of 2’-deoxycoformycin were added to all cultures to avoid any potential effect of serum adenosine deaminase on the activity of test compounds and cordycepin.1
Cells were manually counted in Neubauer chambers at 0, 2, 4, 6, 8, 12, 24, 36 and 48 h after addition of […]
the drugs. […]
After 6 and 12 h after addition of drugs, approximately 2×10^6 cells were harvested from each group and applied to glass slides pre-treated with poly-L-lysine, left to settle for 5 min and fixed with 4% formaldehyde for 4 min. The formaldehyde was neutralised by addition of 100 mM glycine (20 min).
Cells were washed once with PBS and blocked for 1 h with 1% BSA/0.2% Tween-20 in PBS. Cells were […]

`Nc1ncnc2c1c(Br)cn2[C@@H]1O[C@H](CO)[C@@H](O)[C@H]1O` [Compound 8, 7-bromotubercidin] gave an EC50 at 3 day ([1]; MRC-5 EC50, Average) of 12.8 µM, an EC50 at 3 day ([1]; MRC-5 EC50, single measurements) of 8.18 µM and an EC50 ([2]; Trypanosoma brucei, mean and SEM, n = 3, read-out: B48 EC50) of 0.448 ± 0.196 µM. For the same molecule, the “RF (B48)” value ([2]; resistance factor vs Lister 427WT) was 1.42, the “AVG of cells/mL” value ([3]; 2xEC50, 2 h, experiment 1) was 142500 cells/mL and the Cells/mL ([3]; 2xEC50, 2 h, experiment 1) was 127500 Cells/mL and 157500 Cells/mL. For the same molecule, the Counts ([3]; 2xEC50, 2 h, experiment 1) was 51 and 63, the “AVG of cells/mL” value ([3]; 2xEC50, 2 h, experiment 2) was 155000 cells/mL and the Cells/mL ([3]; 2xEC50, 2 h, experiment 2) was 145000 Cells/mL and 165000 Cells/mL. The Counts ([3]; 2xEC50, 2 h, experiment 2) was 58 and 66, the “AVG of cells/mL” value ([3]; 2xEC50, 4 h, experiment 1) was 146250 cells/mL and the Cells/mL ([3]; 2xEC50, 4 h, experiment 1) was 140000 Cells/mL and 152500 Cells/mL. The Counts ([3]; 2xEC50, 4 h, experiment 1) was 61 and 56, the “AVG of cells/mL” value ([3]; 2xEC50, 4 h, experiment 2) was 162500 cells/mL and the Cells/mL ([3]; 2xEC50, 4 h, experiment 2) was 140000 Cells/mL and 185000 Cells/mL. The Counts ([3]; 2xEC50, 4 h, experiment 2) was 74 and 56, the “AVG of cells/mL” value ([3]; 2xEC50, 6 h, experiment 1) was 147500 cells/mL and the Cells/mL ([3]; 2xEC50, 6 h, experiment 1) was 132500 Cells/mL and 162500 Cells/mL. The Counts ([3]; 2xEC50, 6 h, experiment 1) was 53 and 65, the “AVG of cells/mL” value ([3]; 2xEC50, 6 h, experiment 2) was 175000 cells/mL and the Cells/mL ([3]; 2xEC50, 6 h, experiment 2) was 175000 Cells/mL. The Counts ([3]; 2xEC50, 6 h, experiment 2) was 70, the “AVG of cells/mL” value ([3]; 2xEC50, 8 h, experiment 1) was 175000 cells/mL and the Cells/mL ([3]; 2xEC50, 8 h, experiment 1) was 185000 Cells/mL and 165000 Cells/mL. For the same molecule, the Counts ([3]; 2xEC50, 8 h, experiment 1) was 74 and 66, the “AVG of cells/mL” value ([3]; 2xEC50, 8 h, experiment 2) was 166250 cells/mL and the Cells/mL ([3]; 2xEC50, 8 h, experiment 2) was 180000 Cells/mL and 152500 Cells/mL. The Counts ([3]; 2xEC50, 8 h, experiment 2) was 72 and 61, the “AVG of cells/mL” value ([3]; 2xEC50, 12 h, experiment 1) was 185000 cells/mL and the Cells/mL ([3]; 2xEC50, 12 h, experiment 1) was 185000 Cells/mL. For the same molecule, the Counts ([3]; 2xEC50, 12 h, experiment 1) was 74, the “AVG of cells/mL” value ([3]; 2xEC50, 12 h, experiment 2) was 181250 cells/mL and the Cells/mL ([3]; 2xEC50, 12 h, experiment 2) was 190000 Cells/mL and 172500 Cells/mL. The Counts ([3]; 2xEC50, 12 h, experiment 2) was 76 and 69, the “AVG of cells/mL” value ([3]; 2xEC50, 24 h, experiment 1) was 211250 cells/mL and the Cells/mL ([3]; 2xEC50, 24 h, experiment 1) was 227500 Cells/mL and 195000 Cells/mL. For the same molecule, the Counts ([3]; 2xEC50, 24 h, experiment 1) was 91 and 78, the “AVG of cells/mL” value ([3]; 2xEC50, 24 h, experiment 2) was 167500 cells/mL and the Cells/mL ([3]; 2xEC50, 24 h, experiment 2) was 165000 Cells/mL and 170000 Cells/mL. The Counts ([3]; 2xEC50, 24 h, experiment 2) was 66 and 68, the “AVG of cells/mL” value ([3]; 2xEC50, 36 h, experiment 1) was 350000 cells/mL and the Cells/mL ([3]; 2xEC50, 36 h, experiment 1) was 322500 Cells/mL and 377500 Cells/mL. The Counts ([3]; 2xEC50, 36 h, experiment 1) was 129 and 151, the “AVG of cells/mL” value ([3]; 2xEC50, 36 h, experiment 2) was 212500 cells/mL and the Cells/mL ([3]; 2xEC50, 36 h, experiment 2) was 220000 Cells/mL and 205000 Cells/mL. For the same molecule, the Counts ([3]; 2xEC50, 36 h, experiment 2) was 88 and 82, the “AVG of cells/mL” value ([3]; 2xEC50, 48 h, experiment 1) was 365000 cells/mL and the Cells/mL ([3]; 2xEC50, 48 h, experiment 1) was 365000 Cells/mL. The Counts ([3]; 2xEC50, 48 h, experiment 1) was 146, the “AVG of cells/mL” value ([3]; 2xEC50, 48 h, experiment 2) was 152500 cells/mL and the Cells/mL ([3]; 2xEC50, 48 h, experiment 2) was 142500 Cells/mL and 162500 Cells/mL. The Counts ([3]; 2xEC50, 48 h, experiment 2) was 57 and 65, the “effect on T. brucei bloodstream forms in culture (cidal/static)” value ([3]; 2× and 5× EC50) was “trypanostatic” and the “AVG of cells/mL” value ([3]; 5xEC50, 2 h, experiment 1) was 118750 cells/mL. For the same molecule, the Cells/mL ([3]; 5xEC50, 2 h, experiment 1) was 130000 Cells/mL and 107500 Cells/mL, the Counts ([3]; 5xEC50, 2 h, experiment 1) was 52 and 43 and the “AVG of cells/mL” value ([3]; 5xEC50, 2 h, experiment 2) was 130000 cells/mL. The Cells/mL ([3]; 5xEC50, 2 h, experiment 2) was 137500 Cells/mL and 122500 Cells/mL, the Counts ([3]; 5xEC50, 2 h, experiment 2) was 55 and 49 and the “AVG of cells/mL” value ([3]; 5xEC50, 4 h, experiment 1) was 138750 cells/mL. For the same molecule, the Cells/mL ([3]; 5xEC50, 4 h, experiment 1) was 132500 Cells/mL and 145000 Cells/mL, the Counts ([3]; 5xEC50, 4 h, experiment 1) was 58 and 53 and the “AVG of cells/mL” value ([3]; 5xEC50, 4 h, experiment 2) was 130000 cells/mL. For the same molecule, the Cells/mL ([3]; 5xEC50, 4 h, experiment 2) was 125000 Cells/mL and 135000 Cells/mL, the Counts ([3]; 5xEC50, 4 h, experiment 2) was 54 and 50 and the “AVG of cells/mL” value ([3]; 5xEC50, 6 h, experiment 1) was 186250 cells/mL. The Cells/mL ([3]; 5xEC50, 6 h, experiment 1) was 195000 Cells/mL and 177500 Cells/mL, the Counts ([3]; 5xEC50, 6 h, experiment 1) was 78 and 71 and the “AVG of cells/mL” value ([3]; 5xEC50, 6 h, experiment 2) was 162500 cells/mL. For the same molecule, the Cells/mL ([3]; 5xEC50, 6 h, experiment 2) was 155000 Cells/mL and 170000 Cells/mL, the Counts ([3]; 5xEC50, 6 h, experiment 2) was 62 and 68 and the “AVG of cells/mL” value ([3]; 5xEC50, 8 h, experiment 1) was 160000 cells/mL. For the same molecule, the Cells/mL ([3]; 5xEC50, 8 h, experiment 1) was 162500 Cells/mL and 157500 Cells/mL, the Counts ([3]; 5xEC50, 8 h, experiment 1) was 65 and 63 and the “AVG of cells/mL” value ([3]; 5xEC50, 8 h, experiment 2) was 125000 cells/mL. The Cells/mL ([3]; 5xEC50, 8 h, experiment 2) was 122500 Cells/mL and 127500 Cells/mL, the Counts ([3]; 5xEC50, 8 h, experiment 2) was 49 and 51 and the “AVG of cells/mL” value ([3]; 5xEC50, 12 h, experiment 1) was 176250 cells/mL. The Cells/mL ([3]; 5xEC50, 12 h, experiment 1) was 190000 Cells/mL and 162500 Cells/mL, the Counts ([3]; 5xEC50, 12 h, experiment 1) was 76 and 65 and the “AVG of cells/mL” value ([3]; 5xEC50, 12 h, experiment 2) was 166250 cells/mL. The Cells/mL ([3]; 5xEC50, 12 h, experiment 2) was 175000 Cells/mL and 157500 Cells/mL, the Counts ([3]; 5xEC50, 12 h, experiment 2) was 70 and 63 and the “AVG of cells/mL” value ([3]; 5xEC50, 24 h, experiment 1) was 146250 cells/mL. For the same molecule, the Cells/mL ([3]; 5xEC50, 24 h, experiment 1) was 135000 Cells/mL and 157500 Cells/mL, the Counts ([3]; 5xEC50, 24 h, experiment 1) was 54 and 63 and the “AVG of cells/mL” value ([3]; 5xEC50, 24 h, experiment 2) was 126250 cells/mL. For the same molecule, the Cells/mL ([3]; 5xEC50, 24 h, experiment 2) was 115000 Cells/mL and 137500 Cells/mL, the Counts ([3]; 5xEC50, 24 h, experiment 2) was 46 and 55 and the “AVG of cells/mL” value ([3]; 5xEC50, 36 h, experiment 1) was 146250 cells/mL. The Cells/mL ([3]; 5xEC50, 36 h, experiment 1) was 147500 Cells/mL and 145000 Cells/mL, the Counts ([3]; 5xEC50, 36 h, experiment 1) was 59 and 58 and the “AVG of cells/mL” value ([3]; 5xEC50, 36 h, experiment 2) was 138750 cells/mL. For the same molecule, the Cells/mL ([3]; 5xEC50, 36 h, experiment 2) was 145000 Cells/mL and 132500 Cells/mL, the Counts ([3]; 5xEC50, 36 h, experiment 2) was 58 and 53 and the “AVG of cells/mL” value ([3]; 5xEC50, 48 h, experiment 1) was 112500 cells/mL. The Cells/mL ([3]; 5xEC50, 48 h, experiment 1) was 112500 Cells/mL, the Counts ([3]; 5xEC50, 48 h, experiment 1) was 45 and the “AVG of cells/mL” value ([3]; 5xEC50, 48 h, experiment 2) was 75000 cells/mL. For the same molecule, the Cells/mL ([3]; 5xEC50, 48 h, experiment 2) was 65000 Cells/mL and 85000 Cells/mL and the Counts ([3]; 5xEC50, 48 h, experiment 2) was 26 and 34.
